biological target: SMYD3 (Homo sapiens (Human), UniProt Q9H7B4); assay: SMYD3 biochemical assay (SMYD3 enzyme assay on MEKK2 protein substrate, 3H-SAM scintillation proximity assay); settings: Table 1A; average of n = 1 to n = 50; read-out: SMYD3 Biochem IC50
In short: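 Detection used scintillation proximity beads to capture ³H-methylated GST-MEKK2 after quench with 100 uM final cold SAM. The reaction was started by SAM/MEKK2 addition after a 30 min RT compound–enzyme preincubation. Enzyme was tag-free full-length human SMYD3 from E. coli, in buffer of 25 mM Tris-Cl pH 8.0, 1 mM TCEP, 0.005% BSG, 0.005% Tween 20.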

Chain of SMYD3 (Q9H7B4 whole entry): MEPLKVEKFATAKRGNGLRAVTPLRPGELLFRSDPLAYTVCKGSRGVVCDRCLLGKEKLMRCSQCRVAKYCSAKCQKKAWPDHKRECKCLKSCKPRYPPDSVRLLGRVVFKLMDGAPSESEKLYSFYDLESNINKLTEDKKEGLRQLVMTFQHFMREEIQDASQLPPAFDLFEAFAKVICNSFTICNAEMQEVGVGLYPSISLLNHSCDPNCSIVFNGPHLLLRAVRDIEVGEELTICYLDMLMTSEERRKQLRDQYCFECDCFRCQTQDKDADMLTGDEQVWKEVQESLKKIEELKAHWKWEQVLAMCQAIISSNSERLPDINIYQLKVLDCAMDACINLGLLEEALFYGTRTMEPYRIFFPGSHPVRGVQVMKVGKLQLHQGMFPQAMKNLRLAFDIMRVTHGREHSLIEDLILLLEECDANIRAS

IC50 | SMILES
> 50 µM | CC(NC(=O)c1nnc[nH]1)C1CCN(C(=O)[C@H](C)N)CC1 (stereo partly drawn) [compound 523, N-(1-(1-(L-alanyl)piperidin-4-yl)ethyl)-4H-1,2,4-triazole-3-carboxamide]
14.7 µM | Cc1nc(C(=O)N[C@H]2CC[C@H](N)CC2)n[nH]1 [compound 550, N-((1r,4r)-4-aminocyclohexyl)-5-methyl-1H-1,2,4-triazole-3-carboxamide]
> 10 µM | C[C@H]1C[C@@H](NC(=O)c2ccccc2)CCN1S(=O)(=O)CCCN (stereo in doubt) [compound 570, (±)-cis-N-(1-((3-aminopropyl)sulfonyl)-2-methylpiperidin-4-yl)benzamide]
> 10 µM | C[C@@H]1C[C@@H](NC(=O)c2ccccc2)CCN1C(=O)C1CCC(N)CC1 (mixture of isomers) [compound 557, (±)-trans-N-(1-(4-aminocyclohexane-1-carbonyl)-2-methylpiperidin-4-yl)benzamide]

same assay, conditions: read-out: SMYD3 Biochem IC50

IC50 | SMILES
> 100 µM | Cc1cnc(C(=O)N[C@H]2CC[C@H](NC(=O)CCN)CC2)cn1 [compound 215, N-((1r,4r)-4-(3-aminopropanamido)cyclohexyl)-5-methylpyrazine-2-carboxamide]
> 100 µM | Cc1nc2ccccc2c(C(=O)N[C@H]2CC[C@H](N)CC2)c1N [compound 458, 3-amino-N-((1r,4r)-4-aminocyclohexyl)-2-methylquinoline-4-carboxamide]
> 50 µM | NCCC(=O)N[C@H]1CC[C@H](NC(=O)c2ncccc2O)CC1 [compound 512, N-((1r,4r)-4-(3-aminopropanamido)cyclohexyl)-3-hydroxypicolinamide]
44.2 µM | NCCC(=O)NC1CCC(NC(=O)c2ccccn2)CC1 (stereo not drawn) [compound 297, N-(4-(3-aminopropanamido)cyclohexyl)picolinamide]
> 100 µM | N[C@H]1CC[C@H](NC(=O)/C=C/c2c[nH]cn2)CC1 [compound 495, (E)-N-((1r,4r)-4-aminocyclohexyl)-3-(1H-imidazol-4-yl)acrylamide]
> 100 µM | NCCC(=O)N[C@H]1CC[C@H](NC(=O)Cc2c[nH]c3ccccc23)CC1 [compound 195, N-((1r,4r)-4-(2-(1H-indol-3-yl)acetamido)cyclohexyl)-3-aminopropanamide]
> 50 µM | CC(NC(=O)c1cncnc1O)C1CCN(C(=O)[C@H](C)N)CC1 (stereo partly drawn) [compound 509, N-(1-(1-(L-alanyl)piperidin-4-yl)ethyl)-4-hydroxypyrimidine-5-carboxamide]
> 100 µM | NCCC(=O)N[C@H]1CC[C@H](NC(=O)c2cc3ccccc3[nH]2)CC1 [compound 233, N-((1r,4r)-4-(3-aminopropanamido)cyclohexyl)-1H-indole-2-carboxamide]
18.3 µM | CC(C)(CNC(=O)CCN)CNS(=O)(=O)c1ccc2c(c1)CC(=O)N2 [compound 468, 3-amino-N-(2,2-dimethyl-3-((2-oxoindoline)-5-sulfonamido)propyl)propanamide]
> 100 µM | COc1cncc(C(=O)NC(C)C2CCN(C(=O)[C@H](C)N)CC2)n1 (stereo partly drawn) [compound 261, N-(1-(1-(L-alanyl)piperidin-4-yl)ethyl)-6-methoxypyrazine-2-carboxamide]
> 100 µM | CC(NC(=O)c1ccn(C)n1)C1CCN(C(=O)[C@H](C)N)CC1 (stereo partly drawn) [compound 259, N-(1-(1-(L-alanyl)piperidin-4-yl)ethyl)-1-methyl-1H-pyrazole-3-carboxamide]
> 100 µM | NCCC(=O)N[C@H]1CC[C@H](NC(=O)c2cccc3c2OC(F)(F)O3)CC1 [compound 440, N-((1r,4r)-4-(3-aminopropanamido)cyclohexyl)-2,2-difluorobenzo[d][1,3]dioxole-4-carboxamide]
71.1 µM | NCCC(=O)N[C@H]1CC[C@H](NC(=O)/C=C/c2c[nH]cn2)CC1 [compound 482, (E)-N-((1r,4r)-4-(3-aminopropanamido)cyclohexyl)-3-(1H-imidazol-4-yl)acrylamide]
28 µM | COc1ccc2cc(C(=O)N[C@H]3CC[C@H](NC(=O)CCN)CC3)ccc2c1 [compound 326, N-((1r,4r)-4-(3-aminopropanamido)cyclohexyl)-6-methoxy-2-naphthamide]
73.4 µM | Cc1ccncc1C(=O)NC(C)C1CCN(C(=O)[C@H](C)N)CC1 (stereo partly drawn) [compound 255, N-(1-(1-(L-alanyl)piperidin-4-yl)ethyl)-4-methylnicotinamide]
> 100 µM | NCCC(=O)N[C@H]1CC[C@H](NC(=O)c2ccc(-n3cnnc3)cc2)CC1 [compound 329, N-((1r,4r)-4-(3-aminopropanamido)cyclohexyl)-4-(4H-1,2,4-triazol-4-yl)benzamide]
> 100 µM | Cc1nn(C(C)C(=O)N[C@H]2CC[C@H](NC(=O)CCN)CC2)c(C)c1Br (stereo partly drawn) [compound 431, 3-amino-N-((1r,4r)-4-(2-(4-bromo-3,5-dimethyl-1H-pyrazol-1-yl)propanamido)cyclohexyl)propanamide]
> 100 µM | N[C@H]1CC[C@H](NC(=O)CCCn2ccnc2)CC1 [compound 333, N-((1r,4r)-4-aminocyclohexyl)-4-(1H-imidazol-1-yl)butanamide]
37.5 µM | CC(NC(=O)c1cc2cccc(O)c2cc1O)C1CCN(C(=O)[C@H](C)N)CC1 (stereo partly drawn) [compound 441, N-(1-(1-(L-alanyl)piperidin-4-yl)ethyl)-3,5-dihydroxy-2-naphthamide]
12.5 µM | N[C@H]1CC[C@H](NC(=O)[C@H]2CCc3ccccc3N2)CC1 [compound 436, (R)-N-((1r,4r)-4-aminocyclohexyl)-1,2,3,4-tetrahydroquinoline-2-carboxamide]
> 100 µM | N[C@H]1CC[C@H](NC(=O)c2cc(O)nc3ccccc23)CC1 [compound 201, N-((1r,4r)-4-aminocyclohexyl)-2-hydroxyquinoline-4-carboxamide]
> 50 µM | Cc1cc2cc(C(=O)N[C@H]3CC[C@H](NC(=O)CCN)CC3)ccc2[nH]1 [compound 519, N-((1r,4r)-4-(3-aminopropanamido)cyclohexyl)-2-methyl-1H-indole-5-carboxamide]

same assay, conditions: read-out: SMYD3 Biochem IC50 (μM)*

IC50 | SMILES
104 µM | CCc1cc(C(=O)N[C@H]2CC[C@H](N)CC2)on1 [compound 14, N-((1r,4r)-4-aminocyclohexyl)-3-ethylisoxazole-5-carboxamide]
35.5 µM | N[C@@H](Cc1ccc(O)cc1)C(=O)N1CCC(NC(=O)c2ccc3c(c2)NC(=O)C3)CC1 [compound 72, N-(1-(L-tyrosyl)piperidin-4-yl)-2-oxoindoline-6-carboxamide]
193 µM | CN1C(=O)Cc2ccc(C(=O)NC3CCN(C(=O)[C@@H](N)Cc4ccc(O)cc4)CC3)cc21 [compound 88, N-(1-(L-tyrosyl)piperidin-4-yl)-1-methyl-2-oxoindoline-6-carboxamide]
97.1 µM | Nc1nc(C(=O)NC(c2ccccc2)C2CCNCC2)co1 (stereo not drawn) [compound 80, 2-amino-N-(phenyl(piperidin-4-yl)methyl)oxazole-4-carboxamide]
1.86 µM | N[C@@H](Cc1ccc(O)cc1)C(=O)N1CCC(CNC(=O)c2ccc3c(c2)CC(=O)N3)CC1 [compound 102, N-((1-(L-tyrosyl)piperidin-4-yl)methyl)-2-oxoindoline-5-carboxamide]
137 µM | Nc1cc(C(=O)NC(c2ccccc2)C2CCNCC2)n[nH]1 (stereo not drawn) [compound 45, 5-amino-N-(phenyl(piperidin-4-yl)methyl)-1H-pyrazole-3-carboxamide]
184 µM | COc1cc(C(=O)N[C@H]2CC[C@H](N)CC2)cc2c1OCC(=O)N2 [compound 85, N-((1r,4r)-4-aminocyclohexyl)-8-methoxy-3-oxo-3,4-dihydro-2H-benzo[b][1,4]oxazine-6-carboxamide]
92.2 µM | CCOC(=O)CCCC(=O)N[C@H]1CC[C@H](N)CC1 [compound 108, ethyl 5-(((1r,4r)-4-aminocyclohexyl)amino)-5-oxopentanoate]
63.7 µM | O=C(NC1CCNCC1)c1ccc2ncc(=O)[nH]c2c1 [compound 46, 3-oxo-N-(piperidin-4-yl)-3,4-dihydroquinoxaline-6-carboxamide]
76.1 µM | Cc1cc2[nH]c(C(=O)NC3CCNCC3)cc2o1 [compound 58, 2-methyl-N-(piperidin-4-yl)-4H-furo[3,2-b]pyrrole-5-carboxamide]
> 100 µM | CC(NC(=O)c1ccncc1)C1CCN(C(=O)[C@H](C)N)CC1 (stereo partly drawn) [compound 138, N-(1-(1-(L-alanyl)piperidin-4-yl)ethyl)isonicotinamide]
> 100 µM | Cc1n[nH]c(C)c1C(=O)NC(C)C1CCN(C(=O)[C@H](C)N)CC1 (stereo partly drawn) [compound 180, N-(1-(1-(L-alanyl)piperidin-4-yl)ethyl)-3,5-dimethyl-1H-pyrazole-4-carboxamide]
> 100 µM | NCCC(=O)N[C@H]1CC[C@H](NC(=O)c2cccnc2)CC1 [compound 142, N-((1r,4r)-4-(3-aminopropanamido)cyclohexyl)nicotinamide]
> 100 µM | CC(NC(=O)c1cccnc1)C1CCN(C(=O)[C@H](C)N)CC1 (stereo partly drawn) [compound 141, N-(1-(1-(L-alanyl)piperidin-4-yl)ethyl)nicotinamide]
62.5 µM | Nc1ccc2cc(C(=O)N[C@H]3CC[C@H](N)CC3)ccc2c1 [compound 75, 6-amino-N-((1r,4r)-4-aminocyclohexyl)-2-naphthamide]
3.31 µM | N[C@H]1CC[C@H](NC(=O)c2ccc3c(c2)CC(=O)N3)CC1 [compound 42, N-((1r,4r)-4-aminocyclohexyl)-2-oxoindoline-5-carboxamide]
56.3 µM | CCOC(=O)C1(CNC(=O)c2ccc3c(c2)CC(=O)N3)CCNCC1 [compound 131, ethyl 4-((2-oxoindoline-5-carboxamido)methyl)piperidine-4-carboxylate]
> 100 µM | NCCC(=O)N[C@H]1CC[C@H](NC(=O)c2ccc3ccccc3n2)CC1 [compound 163, N-((1r,4r)-4-(3-aminopropanamido)cyclohexyl)quinoline-2-carboxamide]

SMILES | IC50
NCCC(=O)N[C@H]1CC[C@H](NC(=O)c2ccncc2)CC1 [compound 139, N-((1r,4r)-4-(3-aminopropanamido)cyclohexyl)isonicotinamide] | > 100 µM

Reference: patent US10266526B2, “Substituted 1,2,3-triazoles as SMYD inhibitors for treating cancer” (EPIZYME, INC., priority 2014, dated 2019)
